{"source": "ChEMBL document CHEMBL3616418", "about": "“Discovery of Bivalent Kinase Inhibitors via Enzyme-Templated Fragment Elaboration” (ACS Med Chem Lett, 2015)", "key": {"[1]": {"target": "Proto-oncogene tyrosine-protein kinase Src (Homo sapiens, UniProt P12931, C277S/C483S)", "assay": "Inhibition of c-Src C277S, C483S, […] mutant (unknown origin)"}, "[2]": {"target": "Tyrosine-protein kinase ABL1 (Homo sapiens, UniProt P00519)", "assay": "Inhibition of c-Abl (unknown origin)"}, "[3]": {"target": "Tyrosine-protein kinase HCK (Homo sapiens, UniProt P08631)", "assay": "Inhibition of Hck (unknown origin)"}}, "data": [{"compound": "O=C(CCS)Nc1cccc(Nc2nccc(Nc3cc(C4CC4)[nH]n3)n2)c1", "values": [{"measurement": "Ki", "setting": "[1]", "result": 0.2, "unit": "µM"}]}, {"compound": "C=CC(=O)N1CCCC1c1ccco1", "note": "(stereo not drawn)", "values": [{"measurement": "Ki", "setting": "[2]", "result": "> 1250", "unit": "µM"}, {"measurement": "Ki", "setting": "[3]", "result": "> 1250", "unit": "µM"}]}]}
